Values of other authors in US20240041838A1, “METHODS AND COMPOSITIONS FOR INHIBITION OF NEUTROPHIL RECRUITMENT IN MYCOCARDIAL ISCHEMIA-REPERFUSION INJURY” (University of Connecticut, priority 2022, published 2024).

System: I/R-induced ventricular arrhythmia
Details: reported; cited from earlier work

In the case of `CCN(CC)CCCC(C)Nc1nc(C)cc(Nc2ccc3nc(C)cc(N)c3c2)n1` (stereo not shown) [NSC23766], the I/R-induced ventricular arrhythmia is listed as “decreased”.
